Assays:
kinases tested (n = 468) = experiment: KINOMEscan kinome selectivity; type: binding; conditions: fraction of kinases with <10% of control at 3 μM among 468 kinases tested
CDK7/CycH1/MNAT1 = CDK7/CycH1/MNAT1 (Homo sapiens, UniProt P50613); experiment: ATP-competition caliper enzyme assay; type: biochemical; conditions: 1 mM ATP
CDK7/CycH1 = target: T1, CDK7/CycH1 (Homo sapiens, UniProt P50613); experiment: NanoBRET target engagement assay; type: binding; conditions: HEK-293T cells transfected with CDK complex
T1 construct: expressed in transfected cells; host or cells: HEK293
T1 sequence (P50613 whole entry): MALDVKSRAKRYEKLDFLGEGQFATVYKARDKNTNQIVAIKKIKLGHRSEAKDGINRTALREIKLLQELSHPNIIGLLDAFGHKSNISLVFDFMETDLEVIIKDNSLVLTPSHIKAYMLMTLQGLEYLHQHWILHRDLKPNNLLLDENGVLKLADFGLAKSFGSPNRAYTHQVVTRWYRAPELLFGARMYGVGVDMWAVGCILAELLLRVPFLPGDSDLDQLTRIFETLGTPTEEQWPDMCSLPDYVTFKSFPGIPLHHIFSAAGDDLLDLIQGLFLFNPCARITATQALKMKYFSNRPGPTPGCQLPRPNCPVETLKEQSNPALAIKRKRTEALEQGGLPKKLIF
T1 sequence (P51946 whole entry partner): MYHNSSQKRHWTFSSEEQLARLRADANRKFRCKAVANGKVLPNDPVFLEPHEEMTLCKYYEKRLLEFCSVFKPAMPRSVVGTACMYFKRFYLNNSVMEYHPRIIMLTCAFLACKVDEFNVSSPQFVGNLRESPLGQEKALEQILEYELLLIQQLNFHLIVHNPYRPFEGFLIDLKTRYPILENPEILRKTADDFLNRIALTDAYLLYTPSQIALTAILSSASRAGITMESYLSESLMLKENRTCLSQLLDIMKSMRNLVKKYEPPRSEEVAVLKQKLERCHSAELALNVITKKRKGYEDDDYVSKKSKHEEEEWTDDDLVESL
Description: HEK293 cells were prepared to a final concentration of 100 000 cells/ml in 1% fetal bovine serum (FBS) Opti-MEM. Transfection mixtures were prepared with 1 μg of plasmid encoding NanoLuc-fused CDK and 9 μg of plasmid encoding cyclin, diluted in 1 ml Opti-MEM. FuGENE HD (Promega) was added to transfection mixture at a ratio of 30 μl/1 ml. After liposome formation, the lipid:DNA complex was added at a 1:20 ratio to HEK293 cells in suspension. Cells were plated in 384-well tissue culture plates and incubated overnight (20–30 h) at 37°C/5% CO2. Compounds were prepared from DMSO stock solutions and added to cell plates with a final top concentration of 10 000 nM. NanoBRET tracer solution was prepared from 100X tracer solution. For CDK1/cyclin B1, CDK9/cyclin T1, and CDK2/cyclin E1 assays, tracer K10 was used at a final concentration of 0.5 μM, 0.250 μM, and 0.125 μM, respectively. For CDK4/cyclin D1, and CDK6/cyclin D3, tracer K7 was used at a final concentration of 0.0625 μM. For CDK7/cyclin H1, tracer K7 was used at a final concentration of 0.5 μM. The plate was incubated at 37°C/5% CO2 for 2 h. NanoBRET substrate solution was prepared 15 min prior to the assay endpoint using serum-free OptiMEM. […] The plate was then shaken and read using the Perkin Elmer Envision plate reader. The donor emission was measured at 450 nm, followed by acceptor emission at 610 nm. […]

MCF-7 cells = experiment: CyQuant proliferation assay; type: cell-based; conditions: proliferation, 5 days, CyQuant; mean of two independent replicates; read-out: MCF-7 IC50
Description: (§1) OVCAR-3, COV644, or MCF-7 cells were seeded at 1000 cells/well in 384-well black, clear bottom plates and allowed to adhere overnight at 37°C/5% CO2. The following day, cells were treated with compound in a 10-point dose response, 1:4 dilutions. After 5 days of incubation, CyQuant Direct Proliferation Assay was performed according to the manufacturer's instructions. Data were processed with GraphPad Prism using a four-parameter fit to calculate IC50.

OVCAR-3 cells = experiment: CyQuant proliferation assay; type: cell-based, human; conditions: proliferation, 5 days, mean of two independent replicates
Description: as §1

OVCAR-3 xenografts = experiment: OVCAR-3 xenograft tumor growth inhibition; type: in vivo, NOD-SCID mice
Description: Female NOD-SCID mice were purchased from Shanghai Lingchang BioTech Co., Ltd at 6–8 weeks old. Mice were housed in solid bottom polycarbonate ventilated cages at a temperature of 20–26°C in 40–70% humidity. Mice were kept on a 12-h light,
Twelve-hour dark cycle with regularly changed 100% filtered air. Municipal water and rodent diet were provided ad libitum. The general health of the animals was monitored through gross observation, regular body weight measurement, and monitoring of food and water intake. All procedures related to animal handling, care, and treatment were performed according to the protocol approved by the Institutional Animal Care and Use Committee of Shanghai Chempartner following the guidance of the Association for Assessment and Accreditation of Laboratory Animal Care (AAALAC).
OVCAR-3 cells were passaged through mice once, and a cell line was rederived from the tumor, named ‘T2A.’ OVCAR-3 T2A cells were cultured in RPMI 1640 media supplemented with 20% FBS and 0.01 mg/ml insulin. To establish the OVCAR-3 xenograft model, 6 × 10^6 cells per mouse were implanted subcutaneously into the right hind flank of NOD-SCID female mice. Cells were suspended in 50% Matrigel and 50% RPMI 1640 media serum free media prior to implantation.
In OVCAR-3 tumor growth inhibition studies, animals were randomized and treatment began when tumors reached ∼200 mm^3 in size (n = at least eight/group). […] Etoposide was prepared in 5% DMSO + 40% PEG300 + 5%Tween 80 + 50%dd water and dosed intraperitoneally QD at 1.25 mg/kg for 3 days for each week of the study. Olaparib was prepared in 10% HP-ß-CD in water and dosed intraperitoneally QD at 50 mg/kg. Tumor sizes and body weight were measured twice weekly. Tumor sizes were measured in two dimensions using a caliper, and the volume (mm^3) was calculated using the formula: V = 0.5 a x b^2 where a and b are the long and short diameters of the tumor, respectively.

[1] = Pharmacokinetics (plasma concentrations after oral dose); type: in vivo, NOD-SCID mice; conditions: single p.o. dose
Description: (A) Chemical structures of BLU2256. […]
family members. Error bars represent SD of at least duplicate independent experiments. (D) NanoBret assessment of BLU2256 target engagement in indicated CDK complexes expressed in HEK-293 cells. Error bars represent SD of at least duplicate independent experiments. (E) Dose-response curve for pRb T821/826 […]
Error bars represent SD of at least duplicate independent experiments. (F) Dose-response curve for pLamin S22 inhibition by BLU1851 in OVCAR-3 and COV644 cells. Error bars represent SD of duplicate independent experiments. (G) Do se -response curves in MCF-7, OVCAR-3 cells. Cells were treated with a 10- point dose response of indicated compounds and incubated for 5 days before CyQuant assay was performed. […]
Contemporaneously, cells were transfected with a 3X-FLAG donor plasmid plus a plasmid containing Cas9 and a single guide RNA (sgRNA), scramble control (sgScr), or an sgRNA targeting beta- actin (sgACTB). […] The percent body weight change is calculated by normalizing to day 0 per treatment group. […] (M) Quantification of Western blot for pRb S807/811 normalized individually to actin and then to vehicle group to calculate % inhibition. […]
(N) Relative body weight over treatment time. The percent body weight change is calculated by normalizing to day 0 per treatment group. […] The percent body weight change is calculated by normalizing to day 0 per treatment group. […]

Sequence of CDK7/CycH1/MNAT1 (P50613 whole entry): as the sequence (P50613 whole entry) above
Sequence of CDK7/CycH1/MNAT1 (P51946 whole entry partner): as the sequence (P51946 whole entry partner) above
Sequence of CDK7/CycH1/MNAT1 (P51948 whole entry partner): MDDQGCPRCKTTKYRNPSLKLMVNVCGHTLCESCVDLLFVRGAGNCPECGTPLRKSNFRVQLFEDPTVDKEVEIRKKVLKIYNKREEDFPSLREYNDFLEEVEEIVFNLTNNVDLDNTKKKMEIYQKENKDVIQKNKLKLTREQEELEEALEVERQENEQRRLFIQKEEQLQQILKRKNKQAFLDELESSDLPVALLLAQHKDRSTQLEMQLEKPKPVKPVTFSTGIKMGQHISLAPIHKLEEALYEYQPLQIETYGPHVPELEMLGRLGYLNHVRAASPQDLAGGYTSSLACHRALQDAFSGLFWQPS

CC(C)(O)Cn1cc(-c2nc(Nc3ccc(S(N)(=O)=O)cc3F)ncc2C(F)(F)F)cn1 [BLU2256]
Kinome S (10) (kinases tested (n = 468)): 0.040
IC50 (CDK7/CycH1/MNAT1): > 6670 nM
IC50 (CDK7/CycH1): 4420 nM
IC50 (MCF-7 cells): 1280 nM
IC50 (OVCAR-3 cells): 82.5 nM
tumor growth inhibition (OVCAR-3 xenografts; 3 mg/kg QD PO): sub-efficacious with minor tumor growth inhibition
tumor growth inhibition (OVCAR-3 xenografts; 5 mg/kg BID PO): efficacious dose, inducing tumor stasis
body weight (OVCAR-3 xenografts; dose titration, PO): without a change in body weight
tumor growth inhibition (OVCAR-3 xenografts; dose titration, PO QD for 3 weeks): dose-dependent tumor growth inhibition
inhibition of RB1 phosphorylation in tumors (OVCAR-3 xenografts; on-target activity): dose and time-dependent
pharmacokinetics compared with BLU1851 [1]: superior pharmacokinetics

— publication PMC10373114, “CDK2 regulates collapsed replication fork repair in CCNE1-amplified ovarian cancer cells via homologous recombination” (NAR Cancer, 2023)
